The record followed here is patent US20100247606A1, “INTRAOCULAR SUSTAINED RELEASE DRUG DELIVERY SYSTEMS AND METHODS FOR TREATING OCULAR CONDITIONS” (ALLERGAN, INC., priority 2009, published 2010).

One data set has as its system dog eye. In words: Hyperemia and ocular tolerability after intraocular administration in Beagle dogs. It counts as in vivo. As to the method: Microspheres or implant containing an anti-hypertensive agent was injected in one eye and placebo microspheres or implant was injected in the other eye as a control. IOP and hyperemia were monitored for multiweek periods. Ultra thin wall 25-27 gauge needles were used. When microspheres were used they were suspended in vehicle at 10% or 20% by weight.

Data set [1] deals with dog eye intraocular pressure (IOP). Briefly: Percent change from baseline IOP after intraocular administration in Beagle dogs. It counts as in vivo. The conditions noted are these: for IOP reduction maintained through: compared to fellow eye. As to the method: Examples 3 to 7 below set forth in vivo (Beagle dogs) studies carried out by intraocular injection of microspheres or implant, suspended in aqueous vehicle (2% carboxy methylcellulose [CMC], 0.1% Tween 80 in 0.9% saline) or in a high viscosity, high shear rate gel (i.e. a suitable high molecular weight, polymeric hyaluronic acid). Microspheres or implant containing an anti-hypertensive agent was injected in one eye and placebo microspheres or implant was injected in the other eye as a control. IOP and hyperemia were monitored for multiweek periods. Ultra thin wall 25-27 gauge needles were used. When microspheres were used they were suspended in vehicle at 10% or 20% by weight.

Where [2] appears, read: anterior intravitreal administration, dog.

`CCCCC[C@H](O)c1ccc(N2C(=O)CC[C@@H]2COCc2ccc(C(=O)OC(C)C)s2)cc1` [Compound A, 5-{(R)-1-[4-((S)-1-Hydroxy-hexyl)-phenyl]-5-oxo-pyrrolidin-2-ylmethoxymethyl}-thiophene-2-carboxylic acid isopropyl ester]: in the data set on dog eye (setting [2]), the conjunctival hyperemia entry was “mild conjunctival hyperemia through day 3”. The “ocular inflammation at follow up examinations” value in the data set on dog eye (anterior vitreous injection) and in the data set with dog eye (intracameral injection) was “no signs of ocular inflammation” each time. For the same compound, the “subsequent conjunctival hyperemia recordings” value in the data set on dog eye (intracameral, after the first day) is listed as 0. For the same compound, the “maximum conjunctival hyperemia score” value in the data set on dog eye (intracameral, near the site of injection, first day) is “+0.5”. Also, the tolerability entry in the data set with dog eye (neat injections in the anterior chamber and anterior vitreous) is reported as “well tolerated”. Also, the “IOP reduction maintained through” value in data set [1] (50 microliter anterior vitreous injection) and in data set [1] (50 microliter intracameral injection) was 3 days in each case. Also, the “maximum IOP reduction from baseline” value in data set [1] (50 microliter intracameral injection, 0.1% in normal saline) is listed as “about 50%”. In data set [1] (setting [2]), the “maximum IOP reduction below baseline” value was “about 30%”.
